The text below walks through data of publication PMC9317966, “Structure-function analysis of the AMPK activator SC4 and identification of a potent pan AMPK activator” (Biochemical Journal, 2022).

The target in one test is T1, human GST-AMPK α2β1γ1 (Homo sapiens, UniProt P54646+Q9Y478).
T1 construct: triply transfected with full-length AMPK α1 or α2 (NH2-terminal GST fusion, pDEST27 vector); full-length AMPK α1 or α2 (NH2-terminal GST fusion, pDEST27 vector), β1 or β2 (COOH-terminal FLAG fusion, pcDNA3.1 vector); FLAG (C); made in house; host or cells: HEK293T/17 cells, transient triple transfection
Briefly: Radiolabel SAMS kinase assay, GST-AMPK from HEK293T/17 cells immobilised on glutathione-Sepharose. In kind it is biochemical.

A further test relates to α2β2γ1 AMPK. Details: method as in earlier work. To be noted: reported for example I-3-54; cited from earlier work.
For another test, the target named is T2, human GST-AMPK α2β2γ1 (Homo sapiens, UniProt O43741+P54646).
T2 construct: triply transfected with full-length AMPK α1 or α2 (NH2-terminal GST fusion, pDEST27 vector); full-length AMPK α1 or α2 (NH2-terminal GST fusion, pDEST27 vector), β1 or β2 (COOH-terminal FLAG fusion, pcDNA3.1 vector); FLAG (C); made in house; host or cells: HEK293T/17 cells, transient triple transfection
Briefly: Radiolabel SAMS kinase assay, GST-AMPK from HEK293T/17 cells immobilised on glutathione-Sepharose. In kind it is biochemical.

For the next test, the target named is T3, human GST-AMPK α1β2γ1 (Homo sapiens, UniProt O43741+Q13131).
T3 construct: triply transfected with full-length AMPK α1 or α2 (NH2-terminal GST fusion, pDEST27 vector); full-length AMPK α1 or α2 (NH2-terminal GST fusion, pDEST27 vector), β1 or β2 (COOH-terminal FLAG fusion, pcDNA3.1 vector); FLAG (C); made in house; host or cells: HEK293T/17 cells, transient triple transfection
The test is described as above. In kind it is biochemical.

In a further test the target is T4, human GST-AMPK α1β1γ1 (Homo sapiens, UniProt Q13131+Q9Y478).
T4 construct: triply transfected with full-length AMPK α1 or α2 (NH2-terminal GST fusion, pDEST27 vector); full-length AMPK α1 or α2 (NH2-terminal GST fusion, pDEST27 vector), β1 or β2 (COOH-terminal FLAG fusion, pcDNA3.1 vector); FLAG (C); made in house; host or cells: HEK293T/17 cells, transient triple transfection
The description is as above. The test is classed as biochemical. An excerpt:
We generated a series of compounds to investigate whether modification of the SC4 2-hydroxybiphenyl LHS fragment affects isoform selectivity, some of which (MSG008-MSG011) are presented in Table 1. We also synthesised compound MSG012 (example I-3-54 [32]), which was reported to activate α2β2γ1 with ∼100-fold greater potency compared with α1β1γ1. MSG012 differs from SC4 by substitution of the 2-hydroxyphenyl LHS fragment with 3-cyclohexen-4-yl-1-carboxylic acid, and 2-methylbenzoic acid RHS fragment with 1-hydroxy-N,N-dimethylcyclohexan-4-yl-1-carboxamide. Our initial screen involved measuring the activity of recombinant human GST-AMPK complexes expressed in HEK293T/17 cells and immobilised on glutathione-Sepharose (Supplementary Figure S1). Enzyme activity was measured by radiolabelling the synthetic SAMS peptide substrate in the absence or presence of 1 µM compound. Consistent with our previous characterisation, SC4 activated α1β1γ1, α2β1γ1 and α2β2γ1 >2.3-fold, and weakly activated α1β2γ1 1.3-fold (Figure 1A). […] The γ isoform had little influence on AMPK activation by MSG011 as most γ2 and γ3 complexes were activated >2.2-fold at 1 µM, with α1β2γ2 being the only exception (1.6-fold activation). […] Accordingly, MSG010, MSG011 and MSG012 can be classified as pan AMPK activators.
Adherent HEK293T/17 cells at ∼50% confluency were triply transfected with full-length AMPK α1 or α2 (NH2-terminal GST fusion, pDEST27 vector), β1 or β2 (COOH-terminal FLAG fusion, pcDNA3.1 vector), and γ1, γ2 or γ3 (NH2-terminal HA fusion, pMT2 vector) in the presence of FuGENE HD transfection reagent (Promega) as per the manufacturers protocol. Cells were harvested 48 hours post-transfection by first gently washing in ice cold phosphate buffered saline (PBS; Sigma–Aldrich), then scraping in ice cold lysis buffer (50 mM TRIS pH 7.5, 150 mM NaCl, 10% (v/v) glycerol, 50 mM NaF, 5 mM sodium pyrophosphate, 1% (v/v) Triton X-100, cOmplete protease inhibitor cocktail). Lysates were clarified by centrifugation (16 000g, 3 min, 4°C), flash frozen in liquid N2 and stored at −80°C until analysis. For radioactive kinase assays, AMPK was immobilised on glutathione Sepharose 4B resin (GE Healthcare) by incubation with lysates for 1.5 h at 4°C. Following centrifugation (1000g, 3 min, 4°C), the resin was washed twice in purification buffer (50 mM HEPES pH 7.4, 150 mM NaCl, 10% (v/v) glycerol, 0.02% (v/v) Tween-20), once in 50 mM HEPES pH 7.4 with 0.02% (v/v) Tween-20, then resuspended to a 50% slurry with 50 mM HEPES pH 7.4 and 10 µl added to the activity assays. For in solution kinase assays, α1β1γ1 AMPK was eluted from glutathione-Sepharose by incubating with purification buffer supplemented with 40 mM reduced glutathione (Sigma–Aldrich).
AMPK activity was determined by phosphorylation of the SAMS peptide (Purar Chemicals, sequence: NH2-HMRSAMSGLHLVKRR-COOH) in a 25 µl reaction volume containing 100 µM SAMS peptide, 5 mM MgCl2, 200 µM ATP, [γ-^32P]-ATP (PerkinElmer) and assay buffer (50 mM HEPES pH 7.4, 1 mM DTT and 0.02% (v/v) Tween-20) and purified AMPK. Phosphotransferase activity was conducted at 30°C for 10 min and reactions were quenched by spotting 15 µl onto phosphocellulose ion-exchange chromatography paper (made in-house), followed by repeated washes in 1% H3PO4 (Merck Millipore). Ultima Gold liquid scintillation fluid (5 ml; PerkinElmer) was added to vials containing dried phosphocellulose papers, and the level of ^32P-transfer to the SAMS peptide was determined using a Tri-Carb 2900TR liquid scintillation counter (PerkinElmer).

T4 sequence (Q13131 whole entry, the tested form may be a part): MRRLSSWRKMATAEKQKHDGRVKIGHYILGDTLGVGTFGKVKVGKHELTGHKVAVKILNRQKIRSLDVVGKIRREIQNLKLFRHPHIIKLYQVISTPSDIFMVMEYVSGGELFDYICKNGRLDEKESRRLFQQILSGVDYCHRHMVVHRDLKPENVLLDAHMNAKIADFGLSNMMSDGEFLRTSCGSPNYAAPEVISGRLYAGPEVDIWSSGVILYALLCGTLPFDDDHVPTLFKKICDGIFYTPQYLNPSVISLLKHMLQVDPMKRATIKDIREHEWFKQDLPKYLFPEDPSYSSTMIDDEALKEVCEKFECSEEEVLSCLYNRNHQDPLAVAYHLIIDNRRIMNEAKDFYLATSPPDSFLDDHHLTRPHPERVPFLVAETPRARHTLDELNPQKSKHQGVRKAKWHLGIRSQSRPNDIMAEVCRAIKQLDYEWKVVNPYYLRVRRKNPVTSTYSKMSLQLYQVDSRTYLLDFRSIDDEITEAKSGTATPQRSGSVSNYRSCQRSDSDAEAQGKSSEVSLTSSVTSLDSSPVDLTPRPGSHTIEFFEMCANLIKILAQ
T4 sequence (Q9Y478 whole entry, the tested form may be a part): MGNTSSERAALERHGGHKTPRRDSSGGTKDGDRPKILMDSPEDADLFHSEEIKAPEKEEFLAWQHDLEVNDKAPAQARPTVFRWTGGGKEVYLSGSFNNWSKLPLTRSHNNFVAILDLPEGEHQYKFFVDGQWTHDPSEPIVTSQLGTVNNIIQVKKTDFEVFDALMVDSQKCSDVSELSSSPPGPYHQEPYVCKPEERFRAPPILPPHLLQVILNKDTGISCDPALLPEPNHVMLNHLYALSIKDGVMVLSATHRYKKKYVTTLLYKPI
T4 sequence (P54619 whole entry partner, the tested form may be a part): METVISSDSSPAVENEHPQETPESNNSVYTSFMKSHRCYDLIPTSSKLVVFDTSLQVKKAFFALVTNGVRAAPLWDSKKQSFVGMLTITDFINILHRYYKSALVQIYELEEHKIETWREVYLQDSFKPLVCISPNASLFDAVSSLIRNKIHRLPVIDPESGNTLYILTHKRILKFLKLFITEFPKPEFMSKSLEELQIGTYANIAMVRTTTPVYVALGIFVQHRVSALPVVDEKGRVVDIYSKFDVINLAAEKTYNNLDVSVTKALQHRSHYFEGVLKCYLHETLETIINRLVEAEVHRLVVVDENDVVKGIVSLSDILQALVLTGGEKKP
T3 sequence (Q13131 whole entry, the tested form may be a part): as the sequence (Q13131 whole entry, the tested form may be a part) above
T3 sequence (O43741 whole entry, the tested form may be a part): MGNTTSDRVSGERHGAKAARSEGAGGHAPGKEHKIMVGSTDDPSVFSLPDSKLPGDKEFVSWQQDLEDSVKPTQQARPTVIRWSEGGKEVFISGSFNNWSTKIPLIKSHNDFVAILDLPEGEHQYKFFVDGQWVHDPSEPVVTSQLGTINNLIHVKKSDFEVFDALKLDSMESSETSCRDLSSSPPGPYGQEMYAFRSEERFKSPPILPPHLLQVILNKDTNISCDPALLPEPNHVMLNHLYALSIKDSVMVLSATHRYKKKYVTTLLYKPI
T3 sequence (P54619 whole entry partner, the tested form may be a part): as the sequence (P54619 whole entry partner, the tested form may be a part) above
T2 sequence (P54646 whole entry, the tested form may be a part): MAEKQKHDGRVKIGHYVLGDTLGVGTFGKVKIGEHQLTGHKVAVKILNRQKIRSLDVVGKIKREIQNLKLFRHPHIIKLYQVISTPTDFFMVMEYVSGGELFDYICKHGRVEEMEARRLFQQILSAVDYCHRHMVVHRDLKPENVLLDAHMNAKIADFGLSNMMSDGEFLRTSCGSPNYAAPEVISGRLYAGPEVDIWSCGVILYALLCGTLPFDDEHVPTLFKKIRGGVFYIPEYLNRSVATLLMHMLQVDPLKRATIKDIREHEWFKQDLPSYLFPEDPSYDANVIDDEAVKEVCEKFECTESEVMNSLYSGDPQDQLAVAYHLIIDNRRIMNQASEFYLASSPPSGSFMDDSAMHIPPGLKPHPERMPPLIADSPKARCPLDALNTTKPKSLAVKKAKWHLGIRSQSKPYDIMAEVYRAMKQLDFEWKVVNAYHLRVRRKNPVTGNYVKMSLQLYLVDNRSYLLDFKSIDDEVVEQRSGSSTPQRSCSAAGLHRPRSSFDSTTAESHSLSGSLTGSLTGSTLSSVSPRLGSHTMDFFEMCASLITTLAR
T2 sequence (O43741 whole entry, the tested form may be a part): as the sequence (O43741 whole entry, the tested form may be a part) above
T2 sequence (P54619 whole entry partner, the tested form may be a part): as the sequence (P54619 whole entry partner, the tested form may be a part) above
T1 sequence (P54646 whole entry, the tested form may be a part): as the sequence (P54646 whole entry, the tested form may be a part) above
T1 sequence (Q9Y478 whole entry, the tested form may be a part): as the sequence (Q9Y478 whole entry, the tested form may be a part) above
T1 sequence (P54619 whole entry partner, the tested form may be a part): as the sequence (P54619 whole entry partner, the tested form may be a part) above

With `CN(C)C(=O)C1(O)CCC(Oc2nc3nc(-c4ccc(C5=CCC(C(=O)O)CC5)cc4)c(Cl)cc3[nH]2)CC1` (stereo not drawn) [MSG012, 4′-(6-Chloro-2-(((1s,4s)-4-(dimethylcarbamoyl)-4-hydroxycyclohexyl)oxy)-1H-imidazo[4,5-b]pyridin-5-yl)-2,3,4,5-tetrahydro-[1,1′-biphenyl]-4-carboxylic acid], the Max. fold activation stood at 6.1 fold at human GST-AMPK α2β1γ1 (immobilised α2β1γ1), 2.9 fold at human GST-AMPK α2β2γ1 (immobilised α2β2γ1), 1.9 fold on human GST-AMPK α1β2γ1 (immobilised α1β2γ1) and 1.9 fold on human GST-AMPK α1β1γ1 (immobilised α1β1γ1). Besides, the EC50 at human GST-AMPK α2β1γ1 (immobilised α2β1γ1, 0–30 µM activator) turned out to be 332 nM; on human GST-AMPK α2β2γ1 (immobilised α2β2γ1, 0–30 µM activator) it was 328 nM; at human GST-AMPK α1β2γ1 (immobilised α1β2γ1, 0–30 µM activator), 232 nM; at human GST-AMPK α1β1γ1 (immobilised α1β1γ1, 0–30 µM activator) it was 103 nM. Besides, the “greater potency for α2β2γ1 compared with α1β1γ1” value in the test with α2β2γ1 AMPK was approximately 100 fold.

One may read the EC50 as the concentration at which the effect is half-maximal. Higher therefore signals weaker potency.
